Like-named read-outs stand apart in the source and are kept apart here.
Target: T1, rat brain N-type calcium channel subunits (α1B+α2δ+β1b cDNA subunits) (Rattus norvegicus, UniProt Q02294)
T1 construct: expressed in transfected cells; host or cells: HEK 293
Test: N-type calcium channel block, whole cell patch clamp in transfected HEK 293 cells
Format: cell-based
Conditions: holding potential −80 mV to +10 mV
Experimental: N-type calcium channel blocking activity was assayed in human embryonic kidney cells, HEK 293, stably transfected with the rat brain N-type calcium channel subunits (α1B+α2δ+β1b cDNA subunits). Alternatively, N-type calcium channels (α1B+α2δ+β1b cDNA subunits), L-type channels (α1C+α2δ+β1b cDNA subunits) and P/Q-type channels (α1A+α2δ+β1b cDNA subunits) were transiently expressed in HEK 293 cells. Briefly, cells were cultured in Dulbecco's modified eagle medium (DMEM) supplemented with 10% fetal bovine serum, 200 U/ml penicillin and 0.2 mg/ml streptomycin at 37° C. with 5% CO2. At 85% confluency cells were split with 0.25% trypsin/1 mM EDTA and plated at 10% confluency on glass coverslips. At 12 hours the medium was replaced and the cells transiently transfected using a standard calcium phosphate protocol and the appropriate calcium channel cDNA's. Fresh DMEM was supplied and the cells transferred to 28° C./5% CO2. Cells were incubated for 1 to 2 days prior to whole cell recording.
Whole cell patch clamp experiments were performed using an Axopatch 200B amplifier (Axon Instruments, Burlingame, Calif.) linked to a personal computer equipped with pCLAMP software. The external and internal recording solutions contained, respectively, 5 mM BaCl2, 10 mM MgCl2, 10 mM HEPES, 40 mM TEACl, 10 mM glucose, 87.5 mM CsCl (pH 7.2) and 108 mM CsMS, 4 mM MgCl2, 9 mM EGTA, 9 mM HEPES (pH 7.2). Currents were typically elicited from a holding potential of −80 mV to +10 mV using Clampex software (Axon Instruments). Typically, currents were first elicited with low frequency stimulation (0.067 Hz) and allowed to stabilize prior to application of the compounds. The compounds were then applied during the low frequency pulse trains for two to three minutes to assess tonic block, and subsequently the pulse frequency was increased to 0.2 Hz to assess frequency dependent block. Data were analyzed using Clampfit (Axon Instruments) and SigmaPlot 4.0 (Jandel Scientific).

[1] = low frequency stimulation 0.067 Hz (tonic block), 5 mM BaCl2, read-out: IC50 @ 0.067 Hz
[2] = pulse frequency 0.2 Hz (frequency dependent block), 5 mM BaCl2, read-out: IC50 @ 0.2 Hz

T1 sequence (Q02294 whole entry): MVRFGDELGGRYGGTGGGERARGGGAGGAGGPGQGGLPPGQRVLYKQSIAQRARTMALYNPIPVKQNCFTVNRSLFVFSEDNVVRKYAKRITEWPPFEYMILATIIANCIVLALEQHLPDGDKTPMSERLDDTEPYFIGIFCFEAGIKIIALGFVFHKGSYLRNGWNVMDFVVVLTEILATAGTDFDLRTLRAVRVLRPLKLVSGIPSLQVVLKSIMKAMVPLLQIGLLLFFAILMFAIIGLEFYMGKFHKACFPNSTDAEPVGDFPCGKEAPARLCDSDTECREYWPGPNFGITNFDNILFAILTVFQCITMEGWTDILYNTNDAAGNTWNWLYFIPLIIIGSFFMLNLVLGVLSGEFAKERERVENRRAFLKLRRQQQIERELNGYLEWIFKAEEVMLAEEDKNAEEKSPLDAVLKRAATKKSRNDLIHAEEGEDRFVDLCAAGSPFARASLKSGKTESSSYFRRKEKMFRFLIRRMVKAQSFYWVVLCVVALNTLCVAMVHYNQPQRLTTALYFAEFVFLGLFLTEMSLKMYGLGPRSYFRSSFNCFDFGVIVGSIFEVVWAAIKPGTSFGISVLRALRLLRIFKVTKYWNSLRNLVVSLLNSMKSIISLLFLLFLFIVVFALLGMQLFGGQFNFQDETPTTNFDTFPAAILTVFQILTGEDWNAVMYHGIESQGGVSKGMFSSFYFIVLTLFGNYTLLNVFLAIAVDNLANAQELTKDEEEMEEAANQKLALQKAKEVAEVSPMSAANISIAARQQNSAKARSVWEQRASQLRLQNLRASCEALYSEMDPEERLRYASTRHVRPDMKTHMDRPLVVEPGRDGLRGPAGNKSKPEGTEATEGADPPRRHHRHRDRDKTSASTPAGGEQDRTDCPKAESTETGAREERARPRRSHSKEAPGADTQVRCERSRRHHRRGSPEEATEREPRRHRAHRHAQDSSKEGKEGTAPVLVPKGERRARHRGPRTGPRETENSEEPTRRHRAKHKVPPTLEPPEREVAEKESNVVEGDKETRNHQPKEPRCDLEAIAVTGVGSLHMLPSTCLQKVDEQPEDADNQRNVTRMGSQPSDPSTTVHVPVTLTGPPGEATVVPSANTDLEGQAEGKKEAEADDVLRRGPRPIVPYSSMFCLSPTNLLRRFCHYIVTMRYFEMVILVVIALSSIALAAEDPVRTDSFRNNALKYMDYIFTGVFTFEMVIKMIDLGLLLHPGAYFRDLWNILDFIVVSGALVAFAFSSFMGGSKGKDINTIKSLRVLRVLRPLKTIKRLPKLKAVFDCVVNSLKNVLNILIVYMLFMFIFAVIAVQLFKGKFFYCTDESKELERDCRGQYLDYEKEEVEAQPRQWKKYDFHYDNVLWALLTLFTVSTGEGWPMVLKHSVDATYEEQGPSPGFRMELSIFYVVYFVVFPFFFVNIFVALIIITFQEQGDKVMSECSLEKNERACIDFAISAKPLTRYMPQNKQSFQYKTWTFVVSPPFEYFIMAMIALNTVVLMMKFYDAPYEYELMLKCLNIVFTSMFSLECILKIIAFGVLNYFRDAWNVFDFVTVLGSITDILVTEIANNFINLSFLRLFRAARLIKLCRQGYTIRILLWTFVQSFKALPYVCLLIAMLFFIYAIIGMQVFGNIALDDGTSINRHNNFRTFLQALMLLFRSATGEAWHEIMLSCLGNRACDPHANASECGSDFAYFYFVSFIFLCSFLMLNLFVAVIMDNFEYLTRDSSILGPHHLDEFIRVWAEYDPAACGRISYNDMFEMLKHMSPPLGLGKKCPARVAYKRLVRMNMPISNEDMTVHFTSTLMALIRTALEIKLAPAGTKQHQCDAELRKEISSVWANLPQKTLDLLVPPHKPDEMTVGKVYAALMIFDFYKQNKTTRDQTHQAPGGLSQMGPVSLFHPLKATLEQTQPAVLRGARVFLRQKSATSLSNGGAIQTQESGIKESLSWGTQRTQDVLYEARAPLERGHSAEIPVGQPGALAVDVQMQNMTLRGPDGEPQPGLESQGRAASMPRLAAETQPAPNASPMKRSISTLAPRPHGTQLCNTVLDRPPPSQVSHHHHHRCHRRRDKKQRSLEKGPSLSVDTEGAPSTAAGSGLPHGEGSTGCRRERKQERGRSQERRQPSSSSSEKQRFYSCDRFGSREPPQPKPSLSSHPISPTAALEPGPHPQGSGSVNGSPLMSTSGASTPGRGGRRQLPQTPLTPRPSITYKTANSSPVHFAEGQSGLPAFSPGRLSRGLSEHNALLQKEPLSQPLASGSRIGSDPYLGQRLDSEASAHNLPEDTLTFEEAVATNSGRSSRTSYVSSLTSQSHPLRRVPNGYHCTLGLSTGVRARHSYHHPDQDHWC
T1 sequence (P54290 25-944 partner limits assumed): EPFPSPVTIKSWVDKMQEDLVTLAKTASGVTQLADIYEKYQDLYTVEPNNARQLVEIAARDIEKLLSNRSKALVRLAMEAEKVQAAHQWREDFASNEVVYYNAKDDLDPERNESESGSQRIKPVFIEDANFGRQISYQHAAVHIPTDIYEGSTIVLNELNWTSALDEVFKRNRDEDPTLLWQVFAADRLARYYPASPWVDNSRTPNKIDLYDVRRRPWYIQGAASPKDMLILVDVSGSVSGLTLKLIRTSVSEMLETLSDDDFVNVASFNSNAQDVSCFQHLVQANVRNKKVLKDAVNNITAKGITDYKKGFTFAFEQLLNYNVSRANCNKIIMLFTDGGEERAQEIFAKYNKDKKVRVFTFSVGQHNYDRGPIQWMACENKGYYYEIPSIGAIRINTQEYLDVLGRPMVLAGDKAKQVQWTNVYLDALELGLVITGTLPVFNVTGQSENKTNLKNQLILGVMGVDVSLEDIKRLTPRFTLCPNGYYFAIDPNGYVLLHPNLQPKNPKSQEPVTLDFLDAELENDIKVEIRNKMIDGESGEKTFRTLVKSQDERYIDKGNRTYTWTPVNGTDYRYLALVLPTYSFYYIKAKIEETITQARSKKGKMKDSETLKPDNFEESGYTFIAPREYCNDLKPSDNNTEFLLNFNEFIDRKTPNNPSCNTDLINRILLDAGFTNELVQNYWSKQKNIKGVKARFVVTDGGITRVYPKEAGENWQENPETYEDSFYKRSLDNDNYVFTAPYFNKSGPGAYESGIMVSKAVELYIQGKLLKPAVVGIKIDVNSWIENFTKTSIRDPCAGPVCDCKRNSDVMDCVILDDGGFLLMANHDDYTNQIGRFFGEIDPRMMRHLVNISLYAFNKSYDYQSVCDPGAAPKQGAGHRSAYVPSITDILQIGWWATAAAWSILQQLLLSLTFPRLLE
T1 sequence (P54290 945-1091 partner limits assumed): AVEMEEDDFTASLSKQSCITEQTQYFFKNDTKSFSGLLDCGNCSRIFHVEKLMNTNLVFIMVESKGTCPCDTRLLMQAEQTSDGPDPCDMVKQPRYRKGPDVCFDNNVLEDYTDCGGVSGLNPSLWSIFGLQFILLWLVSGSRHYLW
T1 sequence (P54283 whole entry partner): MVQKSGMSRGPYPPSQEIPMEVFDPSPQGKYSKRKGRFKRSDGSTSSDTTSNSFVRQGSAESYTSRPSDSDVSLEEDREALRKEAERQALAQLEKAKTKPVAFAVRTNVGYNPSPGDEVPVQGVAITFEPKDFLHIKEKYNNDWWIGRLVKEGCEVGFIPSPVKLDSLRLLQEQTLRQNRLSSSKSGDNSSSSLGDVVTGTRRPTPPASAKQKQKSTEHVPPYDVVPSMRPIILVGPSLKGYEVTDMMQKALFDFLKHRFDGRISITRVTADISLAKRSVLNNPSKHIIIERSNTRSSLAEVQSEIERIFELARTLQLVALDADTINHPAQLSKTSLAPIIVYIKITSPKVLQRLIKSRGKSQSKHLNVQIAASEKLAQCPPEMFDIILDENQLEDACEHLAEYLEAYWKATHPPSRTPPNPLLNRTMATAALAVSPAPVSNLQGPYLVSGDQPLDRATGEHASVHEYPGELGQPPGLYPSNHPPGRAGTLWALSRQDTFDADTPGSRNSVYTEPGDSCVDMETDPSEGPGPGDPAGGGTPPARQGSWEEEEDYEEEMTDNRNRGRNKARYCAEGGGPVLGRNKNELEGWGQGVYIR

SMILES	IC50 [1] [nM]	IC50 [2] [nM]
O=C(C[S+]([O-])C(c1ccccc1)c1ccccc1)N1CCC(CN2CCCCC2)(c2ccccc2)CC1 (centres unmarked) [Compound 48, 2-(benzhydrylsulfinyl)-1-(4-phenyl-4-(piperidin-1-ylmethyl)piperidin-1-yl)ethanone]	1250	930
Cc1ccccc1C(CC(=O)N1CCC(C(=O)N2CCN(C)CC2)(c2ccccc2)CC1)c1ccccc1C [Compound 37, 1-(4-(4-methylpiperazine-1-carbonyl)-4-phenylpiperidin-1-yl)-3,3-di-o-tolylpropan-1-one]	380	290
O=C(C[S+]([O-])C(c1ccccc1)c1ccccc1)N1CCC(CN2CCCCC2)CC1 (centres unmarked) [Compound 44, 2-(benzhydrylsulfinyl)-1-(4-(piperidin-1-ylmethyl)piperidin-1-yl)ethanone]	8400	4100
CC1CN(C(=O)C2CCN(C(=O)NC(c3ccccc3)c3ccccc3)CC2)CC(C)N1 (centres unmarked) [Compound 25, N-benzhydryl-4-(3,5-dimethylpiperazine-1-carbonyl)piperidine-1-carboxamide]	> 6490	9870
CN1CCN(C(c2ccccc2)C2CCN(C(=O)CC(c3ccccc3)c3ccccc3)CC2)CC1 (centres unmarked) [Compound 54, 1-(4-((4-methylpiperazin-1-yl)(phenyl)methyl)piperidin-1-yl)-3,3-diphenylpropan-1-one]	2360	1320
CC1CN(CC2CCN(C(=O)COC(c3ccccc3)c3ccccc3)CC2)CC(C)N1 (centres unmarked) [Compound 18, 2-(benzhydryloxy)-1-(4-((3,5-dimethylpiperazin-1-yl)methyl)piperidin-1-yl)ethanone]	1860	1180
CC(C)(C)N1CCN(C(=O)C2CCN(C(=O)CC(c3ccc(F)cc3)c3ccc(F)cc3)CC2)CC1 [Compound 81, 1-(4-(4-tert-butylpiperazine-1-carbonyl)piperidin-1-yl)-3,3-bis(4-fluorophenyl)propan-1-one]	4400	2470
CC1CN(C(=O)C2(c3ccccc3)CCN(C(=O)CNC(c3ccccc3)c3ccccc3)CC2)CC(C)N1 (centres unmarked) [Compound 28, 2-(benzhydrylamino)-1-(4-(3,5-dimethylpiperazine-1-carbonyl)-4-phenylpiperidin-1-yl)ethanone]	2780	1610
CN1CCN(C(=O)C2CCN(C(=O)CNC(c3ccccc3)c3ccccc3)CC2)CC1 [Compound 7, 2-(benzhydrylamino)-1-(4-(4-methylpiperazine-1-carbonyl)piperidin-1-yl)ethanone]	4790	2380
CN1CCN(CC2CCN(C(=O)C[S+]([O-])C(c3ccccc3)c3ccccc3)CC2)CC1 (centres unmarked) [Compound 6, 2-(benzhydrylsulfinyl)-1-(4-((4-methylpiperazin-1-yl)methyl)piperidin-1-yl)ethanone]	8550	5200
CC(C)(C)N1CCN(CC2CCN(C(=O)CCCCC(c3ccccc3)c3ccccc3)CC2)CC1 [Compound 74, 1-(4-((4-tert-butylpiperazin-1-yl)methyl)piperidin-1-yl)-6,6-diphenylhexan-1-one]	420	290
CN1CCN(C(=O)C2(c3ccccc3)CCN(C(=O)CNC(c3ccccc3)c3ccccc3)CC2)CC1 [Compound 36, 2-(benzhydrylamino)-1-(4-(4-methylpiperazine-1-carbonyl)-4-phenylpiperidin-1-yl)ethanone]	> 21200	> 12500
CN1CCN(C(=O)C2CCN(C(=O)CC(c3ccccc3)c3ccccc3)CC2)CC1 [Compound 12, 1-(4-(4-methylpiperazine-1-carbonyl)piperidin-1-yl)-3,3-diphenylpropan-1-one]	1260	750
O=C(CNC(c1ccccc1)c1ccccc1)N1CCC(CN2CCCCC2)CC1 [Compound 43, 2-(benzhydrylamino)-1-(4-(piperidin-1-ylmethyl)piperidin-1-yl)ethanone]	5320	5260
CN1CCN(CC2CCN(C(=O)COC(c3ccccc3)c3ccccc3)CC2)CC1 [Compound 4, 2-(benzhydryloxy)-1-(4-((4-methylpiperazin-1-yl)methyl)piperidin-1-yl)ethanone]	> 5650	> 3830
Cc1ccccc1C(CC(=O)N1CCC(CN2CC(C)NC(C)C2)CC1)c1ccccc1C (centres unmarked) [Compound 15, 1-(4-((3,5-dimethylpiperazin-1-yl)methyl)piperidin-1-yl)-3,3-di-o-tolylpropan-1-one]	1850	1640
Cc1ccccc1C(CC(=O)N1CCC(CN2CCN(C(C)(C)C)CC2)CC1)c1ccccc1C [Compound 67, 1-(4-((4-tert-butylpiperazin-1-yl)methyl)piperidin-1-yl)-3,3-di-o-tolylpropan-1-one]	530	250

Other lines, results leading:

IC50 [1] [nM]	IC50 [2] [nM]	SMILES
320	250	Cc1ccccc1C(CC(=O)N1CCC(CN2CCCCC2)(c2ccccc2)CC1)c1ccccc1C [Compound 46, 1-(4-phenyl-4-(piperidin-1-ylmethyl)piperidin-1-yl)-3,3-di-o-tolylpropan-1-one]
1900	1060	Cc1ccccc1C(CC(=O)N1CCC(CN2CCN(C)CC2)CC1)c1ccccc1C [Compound 14, 1-(4-((4-methylpiperazin-1-yl)methyl)piperidin-1-yl)-3,3-di-o-tolylpropan-1-one]
930	440	Cc1ccccc1C(CC(=O)N1CCC(C(c2ccccc2)N2CC(C)NC(C)C2)CC1)c1ccccc1C (centres unmarked) [Compound 57, 1-(4-((3,5-dimethylpiperazin-1-yl)(phenyl)methyl)piperidin-1-yl)-3,3-di-o-tolylpropan-1-one]
> 5460	> 3570	CC1CN(C(=O)C2CCN(C(=O)CC(c3ccccc3)c3ccccc3)CC2)CC(C)N1 (centres unmarked) [Compound 24, 1-(4-(3,5-dimethylpiperazine-1-carbonyl)piperidin-1-yl)-3,3-diphenylpropan-1-one]
1480	940	Cc1ccccc1C(CC(=O)N1CCC(C(=O)N2CCN(C(C)(C)C)CC2)CC1)c1ccccc1C [Compound 79, 1-(4-(4-tert-butylpiperazine-1-carbonyl)piperidin-1-yl)-3,3-di-o-tolylpropan-1-one]
410	240	Cc1ccccc1C(CC(=O)N1CCC(C(=O)N2CC(C)NC(C)C2)(c2ccccc2)CC1)c1ccccc1C (centres unmarked) [Compound 27, 1-(4-(3,5-dimethylpiperazine-1-carbonyl)-4-phenylpiperidin-1-yl)-3,3-di-o-tolylpropan-1-one]
> 4700	> 3910	CC1CN(CC2CCN(C(=O)CC(c3ccccc3)c3ccccc3)CC2)CC(C)N1 (centres unmarked) [Compound 23, 1-(4-((3,5-dimethylpiperazin-1-yl)methyl)piperidin-1-yl)-3,3-diphenylpropan-1-one]
4480	2210	CN1CCN(C(=O)C2CCN(C(=O)NC(c3ccccc3)c3ccccc3)CC2)CC1 [Compound 13, N-benzhydryl-4-(4-methylpiperazine-1-carbonyl)piperidine-1-carboxamide]
1310	850	CC1CN(C(=O)C2(c3ccccc3)CCN(C(=O)CC(c3ccccc3)c3ccccc3)CC2)CC(C)N1 (centres unmarked) [Compound 26, 1-(4-(3,5-dimethylpiperazine-1-carbonyl)-4-phenylpiperidin-1-yl)-3,3-diphenylpropan-1-one]
270	150	Cc1ccccc1C(CC(=O)N1CCC(C(c2ccccc2)N2CCN(C)CC2)CC1)c1ccccc1C (centres unmarked) [Compound 56, 1-(4-((4-methylpiperazin-1-yl)(phenyl)methyl)piperidin-1-yl)-3,3-di-o-tolylpropan-1-one]
1410	800	Cc1ccccc1C(CC(=O)N1CCC(C(c2ccccc2)N2CCN(C(C)(C)C)CC2)CC1)c1ccccc1C (centres unmarked) [Compound 101, 1-(4-((4-tert-butylpiperazin-1-yl)(phenyl)methyl)piperidin-1-yl)-3,3-di-o-tolylpropan-1-one]
11600	–	CC(C)(C)N1CCN(C(=O)C2CCN(C(=O)NC(c3ccccc3)c3ccccc3)CC2)CC1 [Compound 80, N-benzhydryl-4-(4-tert-butylpiperazin-1-carbonyl)piperidine-1-carboxamide]
2180	1230	CC(C)(C)N1CCN(CC2CCN(C(=O)CC(c3ccccc3)c3ccccc3)CC2)CC1 [Compound 66, 1-(4-((4-tert-butylpiperazin-1-yl)methyl)piperidin-1-yl)-3,3-diphenylpropan-1-one]
